Values of other authors as cited in US20250170148A1, “NEUROACTIVE STEROIDS FOR TREATMENT OF GASTROINTESTINAL DISEASES OR CONDITIONS” (Sage Therapeutics, Inc., priority 2022, published 2025).
Entries after “also recorded” stand apart in the source; their conditions may differ. Read-outs that look alike come from different tables or passages of the source.

Columns and labels:
[1] = tested on: patients with major depressive disorder; conditions: meta-analysis; for rate of gastrointestinal adverse reactions compared to placebo: 15 most commonly used antidepressants in MDD; for gastrointestinal tolerability among antidepressants: patients with MDD

| Compound | rate of gastrointestinal adverse reactions compared to placebo [1] | other results |
| --- | --- | --- |
| COc1ccc2cccc(CCNC(C)=O)c2c1 [agomelatine] | higher rates of gastrointestinal adverse reactions compared to placebo | – |
| CC(NC(C)(C)C)C(=O)c1cccc(Cl)c1 (centres unmarked) [bupropion] | higher rates of gastrointestinal adverse reactions compared to placebo | – |
| CN(C)CCCC1(c2ccc(F)cc2)OCc2cc(C#N)ccc21 (centres unmarked) [citalopram] | higher rates of gastrointestinal adverse reactions compared to placebo | – |
| CN(C)CC(c1ccc(O)cc1)C1(O)CCCCC1 (centres unmarked) [desvenlafaxine] | higher rates of gastrointestinal adverse reactions compared to placebo | – |
| CNCC[C@H](Oc1cccc2ccccc12)c1cccs1 [duloxetine] | higher rates of gastrointestinal adverse reactions compared to placebo | – |
| CN(C)CCC[C@@]1(c2ccc(F)cc2)OCc2cc(C#N)ccc21 [escitalopram] | higher rates of gastrointestinal adverse reactions compared to placebo | gastrointestinal tolerability among antidepressants [1]: least tolerated antidepressants on the gastrointestinal tract; gastrointestinal tolerability among antidepressants ([1]; listed as Escitalopram): least tolerated antidepressants on the GI tract |
| CNCCC(Oc1ccc(C(F)(F)F)cc1)c1ccccc1 (centres unmarked) [fluoxetine] | higher rates of gastrointestinal adverse reactions compared to placebo | – |
| COCCCC/C(=N\OCCN)c1ccc(C(F)(F)F)cc1 [fluvoxamine] | higher rates of gastrointestinal adverse reactions compared to placebo | – |
| CCN(CC)C(=O)[C@@]1(c2ccccc2)C[C@H]1CN [levomilnacipran] | higher rates of gastrointestinal adverse reactions compared to placebo | – |
| CN1CCN2c3ncccc3Cc3ccccc3C2C1 (centres unmarked) [mirtazapine] | higher rates of gastrointestinal adverse reactions compared to placebo | – |
| Fc1ccc([C@@H]2CCNC[C@H]2COc2ccc3c(c2)OCO3)cc1 [paroxetine] | higher rates of gastrointestinal adverse reactions compared to placebo | – |
| CCOc1ccccc1OC(c1ccccc1)C1CNCCO1 (centres unmarked) [reboxetine] | higher rates of gastrointestinal adverse reactions compared to placebo | – |
| CN[C@H]1CC[C@@H](c2ccc(Cl)c(Cl)c2)c2ccccc21 [sertraline] | higher rates of gastrointestinal adverse reactions compared to placebo | gastrointestinal tolerability among antidepressants [1]: least tolerated antidepressants on the gastrointestinal tract; also recorded: least tolerated antidepressants on the GI tract; incidence of diarrhea (compared to other SSRIs and venlafaxine): higher incidence of diarrhea |
| COc1ccc(C(CN(C)C)C2(O)CCCCC2)cc1 (centres unmarked) [venlafaxine] | higher rates of gastrointestinal adverse reactions compared to placebo | rates of nausea and vomiting (compared to SSRIs and duloxetine): higher rates of nausea and vomiting |
| Cc1ccc(Sc2ccccc2N2CCNCC2)c(C)c1 [vortioxetine] | higher rates of gastrointestinal adverse reactions compared to placebo | – |
